Data reported in patent US9328361B2, “Coryneform bacterium transformant and process for producing phenol using the same” (GREEN PHENOL DEVELOPMENT CO., LTD., priority 2010, dated 2016).
Like-named read-outs stand apart in the source and are kept apart here.

Assays:
Escherichia coli JM109 = details: aerobic culture, LB liquid medium, 37° C.
Experimental: (§1) A growth inhibition test in aerobic culture was performed to examine the influence of phenol on Corynebacterium glutamicum, Escherichia coli, and Pseudomonas putida. Pseudomonas putida S12, which was used for the test, is reported to be a solvent-resistant strain. In the report, disclosed is an unparalleled technology using the strain as a host in phenol production.
Escherichia coli JM109 was applied to LB agar medium (1% polypeptone, 0.5% yeast extract, 0.5% NaCl and 1.5% agar) and was left stand in the dark at 37° C. for 15 hours.
The growth of bacterial cells was determined by absorbance measurement at OD610.
(§2) Pseudomonas putida F1 and S12 grown in the above conditions were each inoculated into 100 mL of LB (+glucose) liquid medium in such a way that the initial bacterial cell concentration would be OD610=0.05, phenol was added at the same time in such a way that the final concentration would be 0, 0.10, or […], and aerobic culture was performed with shaking at 30° C. The growth of bacterial cells was determined by absorbance measurement at OD610. […] The vertical axis of FIG. 1 indicates OD610.

Pseudomonas putida F1 = details: aerobic culture, LB (+glucose) liquid medium, 30° C.
Experimental: as §1
(§3) Pseudomonas putida F1 and S12 were applied to LB agar medium (1% polypeptone, 0.5% yeast extract, 0.5% NaCl and 1.5% agar) and were left stand in the dark at 30° C. for 15 hours.
(§4) An inoculation loop of each of Pseudomonas putida F1 and S12 was inoculated into a test tube containing 10 mL of LB (+glucose) liquid medium (1% polypeptone, 0.5% yeast extract, 0.5% NaCl and 0.4% glucose), and aerobic culture was performed with shaking at 30° C. for 13 hours.
as §2

Pseudomonas putida S12 = details: aerobic culture, LB (+glucose) liquid medium, 30° C.
Experimental: as §1, §3, §4, §2

[1] = tested on: Corynebacterium glutamicum R; details: aerobic culture, A liquid medium, 33° C.
Experimental: as §1, with “production. […]” for “production.”
The Corynebacterium glutamicum R grown in the above conditions was inoculated into 100 mL of A liquid media in such a way that the initial bacterial cell concentration would be OD610=0.05, phenol was added at the same time in such a way that the final concentration would be 0, 0.16, 0.2, 0.24, or […], and aerobic culture was performed with shaking at 33° C. The growth of bacterial cells was determined by absorbance measurement at OD610.
Pseudomonas putida F1 and S12 grown in the above conditions were each inoculated into 100 mL of LB (+glucose) liquid medium in such a way that the initial bacterial cell concentration would be OD610=0.05, phenol was added at the same time in such a way that the final concentration would be 0, 0.10, or […], and aerobic culture was performed with shaking at 30° C. The growth of bacterial cells was determined by absorbance measurement at OD610. […]

[2] = tested on: Corynebacterium glutamicum R; details: reducing conditions (ORP −450 mV), 8% glucose, 33° C.
Experimental: Corynebacterium glutamicum R was applied to A agar medium and was left stand in the dark at 33° C. for 20 hours.
An inoculation loop of the Corynebacterium glutamicum R grown on a plate as above was inoculated into a test tube containing 10 mL of A liquid medium and was aerobically cultured with shaking at 33° C. for 15 hours.
The Corynebacterium glutamicum R grown in the above conditions was inoculated into a 2 L-conical flask containing 500 mL of A liquid medium and was aerobically cultured with shaking at 33° C. for 15 hours.
The bacterial cells cultured and proliferated as above were collected by centrifugation (5,000×g at 4° C. for 15 minutes). The obtained bacterial cells were suspended in BT (-urea) liquid medium (0.7% ammonium sulfate, 0.05% potassium dihydrogen phosphate, 0.05% dipotassium hydrogen phosphate, 0.05% magnesium sulfate heptahydrate, 0.0006% iron sulfate heptahydrate, 0.00042% manganese sulfate hydrate, 0.00002% biotin and 0.00002% thiamine hydrochloride) so that the concentration of the bacterial cell was 10% (w/v). […] During the reaction, 2.5 N aqueous ammonia was added with the use of a pH controller (Type: DT-1023 made by Able) to avoid the pH of the reaction mixture falling below 7.0.

Oc1ccccc1 [phenol]
proliferation of Escherichia coli (Escherichia coli JM109; 0.16% phenol): significantly affected | proliferation of Escherichia coli (Escherichia coli JM109; 0.20% phenol): completely inhibited | proliferation of Pseudomonas putida F1 (Pseudomonas putida F1; 0.10% phenol): significantly affected | proliferation of Pseudomonas putida F1 (Pseudomonas putida F1; 0.20% phenol): completely inhibited | proliferation of Pseudomonas putida S12 (Pseudomonas putida S12; 0.10% phenol): significantly affected | proliferation of Pseudomonas putida S12 (Pseudomonas putida S12; 0.20% phenol): completely inhibited | proliferation of Corynebacterium glutamicum ([1]; 0.16% phenol): hardly affected | proliferation of Corynebacterium glutamicum ([1]; 0.20% phenol): favorable growth | influence on saccharide consumption ([2]; 0.24% phenol): no influence of phenol was observed | saccharide consumption ([2]; 0.38% phenol): saccharide consumption was observed | saccharide consumption ([2]; 0.46% phenol): slightly observed
